We go through three compounds from PMC6936217 (Science translational medicine, 2019).

As usually defined, the IC50 is the concentration needed to halve the response being measured.

For one experiment, the target named is EBNA1 (Epstein-Barr virus, UniProt P03211). The experiment is described as follows: ALPHA proximity DNA binding assay.
A further experiment concerns the target 15N-labeled EBNA1 (Epstein-Barr virus, UniProt P03211). The experiment is described as follows: HSQC NMR with 15N-labeled EBNA1. Type of experiment: binding. Particulars: 50 μM ligand.
Where [1] appears, read: read-out: IC50, inhibition of EBNA1 DNA binding, ALPHA proximity assay.

Structures are written as SMILES. Like-named read-outs stand apart in the source and are kept apart here.

Chain of EBNA1 (P03211 459-607): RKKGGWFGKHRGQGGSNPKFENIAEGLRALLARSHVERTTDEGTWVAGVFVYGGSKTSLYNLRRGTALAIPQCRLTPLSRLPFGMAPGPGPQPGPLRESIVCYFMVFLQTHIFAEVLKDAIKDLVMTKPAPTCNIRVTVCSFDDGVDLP
Chain of 15N-labeled EBNA1 (P03211 459-607): as above

As for `O=C(O)c1cncc(C#Cc2ccccc2)c1` [VK-0044, 5-phenylacetylenyl nicotinic acid], on EBNA1, the IC50 stood at 110000 nM. Consider `O=C(O)c1ccccc1-n1cccc1` [VK-0064, 2-pyrrolo-benzoic acid], for which, at EBNA1 (setting [1]), the IC50 was 2000 nM. With `O=C(O)c1cccc(C#Cc2ccccc2)c1-n1cccc1` [VK-0497, 2-pyrrolo-3-phenylacetylenyl benzoic acid], on 15N-labeled EBNA1, the “binding to EBNA1 by chemical shift changes” value is “direct binding”. Also, on EBNA1 (setting [1]), the IC50 stood at 890 nM.
